According to patent US20260094269A1, “DIAGNOSIS AND MONITORING OF NEURODEGENERATIVE DISEASES” (MACQUARIE UNIVERSITY, priority 2019, published 2026):

Test system: monocytes
Experiment: Hyperspectral autofluorescence imaging of monocytes isolated from treated ALS / motor neuron disease patients (LDA projection, response score)
Type: in vivo, human
Description: In the particular implementation presented here the “response vectors” were obtained using the following procedure. First, a discriminatory model was developed using a subset of the data based on two groups, the first group comprising the controls C1 C4 and two sets of patient data P2 and P6, while the second group comprising P1, P3, and P4. Second, all data from FIG. 4 was projected on the direction joining the centres of the two cell data clusters for the two groups defined above and a one-dimensional response vector was determined by a projection of each original cell vector from FIG. 4. These one-dimensional response vectors for all cells were presented in a box plot format (each symbol indicates a response vector for a different cell).
The box plots in FIGS. 5 and 6 comprise rectangles with three shades of grey. The thin line in the centre of the rectangle has the darkest shade of grey and represents the median value; the two stripes immediately adjacent to the centre line have the lightest shade of grey and represent the 95% confidence region (1.96×SEM); and the two stripes nearest to the ends of the rectangle have an intermediate shade of grey and represent the first standard deviation. If the light-grey regions of a cluster are not horizontally overlapping, one can be confident of having measured a difference. The values in the plot were shifted by a value of 1.3358, just for sake of placing the controls about zero, although this is an arbitrary shift and, in other examples, the values may be shifted by other amounts. Clusters may be classified according to their mean values: high values may be attributed to “diseased and unresponsive” state, intermediate values may be attributed to “normal”, and low values compared to normal may be interpreted as “drug affected”.
Blood samples were collected using Vacutainer® CPT™ Cell Preparation Tube (BD Australia, catalogue: 362760). 4 mls of whole blood from controls and MND patients were collected into the CPT tube via veinpuncture technique, using the standard technique for BD Vacutainer® Evacuated blood collection tubes. After collection, the tube/blood samples were centrifuged at room temperature (18-25° C.) in a horizontal rotor centrifuge for a minimum of 20 minutes at 1500 to 1800 RCF. After centrifugation, mononuclear cells and platelets located in a whitish layer (Buffy layer just under the plasma layer) were collected using a Pasteur pipette and transferred to a 15 mL size conical centrifuge tube.
Monocytes were isolated from collected buffy layer using a Pan Monocyte Isolation Kit, human (Miltenyi Biotec, catalogue: 130-096-537). The Monocyte Isolation Kit is an indirect magnetic labelling system for the isolation of untouched monocytes from human peripheral blood mononuclear cells (PBMCs). Non-monocytes, i.e. T cells, NK cells, B cells, dendritic cells and basophils, are indirectly magnetically labeled using a cocktail of biotin-conjugated antibodies against CD3, CD7, […], CD19, CD56, CD123 and Glycophorin A, and Anti-Biotin MicroBeads. Isolation of highly pure unlabelled monocytes is achieved by depletion of the magnetically labeled cells. […]

| Structure (SMILES) | clustering of monocytes (autofluorescence spectral space) relative to healthy control (ALS Patient 1, before (T0) vs three weeks after (T1) start of treatment, FIG. 5(a)) | response score (one-dimensional projection), longitudinal testing (ALS Patients 1 and 2, T0 vs T1-T3 over the course of treatment, FIG. 5(c)) | position of treated patients' cell data in LDA projection (control space vs patient space) (FIG. 4, all patients and controls C1-C4) | position of patient cell data in LDA projection over consecutive tests (FIG. 4, patient (P5), Test1 to Test4) | range of response scores compared with healthy controls (eight other ALS patients (Patients 3-10), FIG. 6) |
| --- | --- | --- | --- | --- | --- |
| CN=C([S-])N/N=C(C)/C(C)=N/NC([S-])=NC.[Cu+2] [CuATSM, Copper ATSM] | normalised towards the healthy cells | statistically strong drug responses from time T1 onwards | appear in the control space or to the left hand side | progressively moving left (and less component 2) into the control/treated space | – |
| Nc1nc2ccc(OC(F)(F)F)cc2s1 [Riluzole] | – | – | – | – | much wider range of response scores than healthy controls |
